Data on 24 compounds can be found in PubChem BioAssay AID330 (DTP/NCI, 2004).

Structures are written as SMILES. Values joined by “and” are separate entries in the source; they are usually repeats but may differ in a detail not shown here. Identical values can stand only once. Toxic doses and inconclusive results are not listed.

The experiment relates to P388 leukemia ip, CD2F1 mice, survival T/C. The experiment can be described thus: NCI In Vivo Anticancer Drug Screen. Data for tumor model P388 Leukemia (intraperitoneal) in CD2F1 (CDF1) mice. The conditions noted are these: endpoint: median survival time, higher = longer survival. In short, it runs like this:
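Mice carrying the transplanted tumor received test compound or vehicle. Survival was recorded in each group, and the value is the treated-group measurement divided by that of the vehicle-treated control group.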

The mark [1] stands for this setting: dose: 60.0 mg/kg/injection, schedule: Q01DX005 (ip), vehicle: saline with Tween-80.
Setting [2] is: dose: 120.0 mg/kg/injection, schedule: Q01DX005 (ip), vehicle: saline with Tween-80.
Setting [3] is: dose: 50.0 mg/kg/injection, schedule: Q01DX009 (ip), vehicle: saline with Tween-80.
The mark [4] stands for this setting: dose: 100.0 mg/kg/injection, schedule: Q01DX009 (ip), vehicle: saline with Tween-80.
[5] abbreviates: dose: 200.0 mg/kg/injection, schedule: Q01DX009 (ip), vehicle: saline with Tween-80.
[6] abbreviates: dose: 60.0 mg/kg/injection, schedule: Q01DX005 (ip), vehicle: Klucel (hydroxypropylcellulose) (HPC).
Setting [7] is: dose: 120.0 mg/kg/injection, schedule: Q01DX005 (ip), vehicle: Klucel (hydroxypropylcellulose) (HPC).
Setting [8] is: dose: 240.0 mg/kg/injection, schedule: Q01DX005 (ip), vehicle: Klucel (hydroxypropylcellulose) (HPC).
Where [9] appears, read: dose: 50.0 mg/kg/injection, schedule: Q01DX005 (ip), vehicle: saline with Tween-80.
[10] abbreviates: dose: 100.0 mg/kg/injection, schedule: Q01DX005 (ip), vehicle: saline with Tween-80.
Setting [11] is: dose: 200.0 mg/kg/injection, schedule: Q01DX005 (ip), vehicle: saline with Tween-80.
[12] abbreviates: dose: 1.56 mg/kg/injection, schedule: Q01DX009 (ip), vehicle: saline with Tween-80.
The mark [13] stands for this setting: dose: 6.25 mg/kg/injection, schedule: Q01DX009 (ip), vehicle: saline with Tween-80.

For `O=C(Cc1n[nH]c(=S)nc1CC(=O)c1cccnc1)c1cccnc1`, the T/C under setting [1] is 100 % of control and the T/C under setting [2] was 96 % of control.

With `CCS`, the T/C (dose: 25.0 mg/kg/injection, schedule: Q01DX009 (ip), vehicle: saline with Tween-80) is 86 % of control; the T/C under setting [3] is 91 % of control; the T/C under setting [4] is 92 % of control; the T/C under setting [5] is 88 % of control.

For `COc1ccc(C2CC(=O)N(c3ccncc3)C(=O)C2)cc1`, the T/C was 115 % of control (dose: 50.0 mg/kg/injection, schedule: Q04DX002 (ip), vehicle: saline with Tween-80); 95 % of control (dose: 100.0 mg/kg/injection, schedule: Q04DX002 (ip), vehicle: saline with Tween-80); 90 % of control (dose: 200.0 mg/kg/injection, schedule: Q04DX002 (ip), vehicle: saline with Tween-80).

As to `Cc1c(-c2ccccc2)ccnc1/C=N/NC(=S)NCCc1ccccc1`, the T/C under setting [4] is 101 % of control and 95 % of control.

Regarding `CCN(CC)CCNc1ccc(C)c2sc3cc(O)ccc3c(=O)c12`, the T/C was 107 % of control (dose: 50.0 mg/kg/injection, schedule: Q01DX005 (ip), vehicle: saline); 108 % of control (dose: 100.0 mg/kg/injection, schedule: Q01DX005 (ip), vehicle: saline); 106 % of control (dose: 200.0 mg/kg/injection, schedule: Q01DX005 (ip), vehicle: saline).

For `CCC12CCCN3CCC4(c5cccc(O)c5NC4CC1)C32` (centres undefined), the T/C by setting is: (dose: 60.0 mg/kg/injection, schedule: Q01DX005 (ip), vehicle: saline) 101 % of control; (dose: 120.0 mg/kg/injection, schedule: Q01DX005 (ip), vehicle: saline) 94 % of control; (dose: 240.0 mg/kg/injection, schedule: Q01DX005 (ip), vehicle: saline) 101 % of control.

Regarding `Nc1ncnc2[nH]c(=O)[nH]c12`, the T/C is 95 % of control (dose: 25.0 mg/kg/injection, schedule: Q04DX003 (ip), vehicle: saline); 104 % of control (dose: 50.0 mg/kg/injection, schedule: Q04DX003 (ip), vehicle: saline); 104 % of control (dose: 100.0 mg/kg/injection, schedule: Q04DX003 (ip), vehicle: saline).

As for `Cc1c(O)c2ccccc2c2c1sc(NCCCN(CCO)CCO)[n+]2C`, the T/C runs as follows: (dose: 7.5 mg/kg/injection, schedule: Q01DX005 (ip), vehicle: saline) 109 % of control; (dose: 15.0 mg/kg/injection, schedule: Q01DX005 (ip), vehicle: saline) 107 % of control; (dose: 30.0 mg/kg/injection, schedule: Q01DX005 (ip), vehicle: saline) 110 % of control.

For `O=C(OCOC(=O)c1ccccc1)c1ccccc1`, the T/C (dose: 100.0 mg/kg/injection, schedule: Q01DX009 (ip), vehicle: Klucel (hydroxypropylcellulose) (HPC)) is 117 % of control; the T/C (dose: 200.0 mg/kg/injection, schedule: Q01DX009 (ip), vehicle: Klucel (hydroxypropylcellulose) (HPC)) is 107 % of control; the T/C (dose: 400.0 mg/kg/injection, schedule: Q01DX009 (ip), vehicle: Klucel (hydroxypropylcellulose) (HPC)) is 109 % of control.

Turning to `Cc1nc2nc[nH]n2c1N=Nc1ccccc1`, the T/C by setting is: under setting [6], 98 % of control; under setting [7], 95 % of control; under setting [8], 107 % of control.

Turning to `N#C/C(=C\C(Cl)=C/c1ccccc1)C(N)=S`, the T/C runs as follows: (dose: 50.0 mg/kg/injection, schedule: Q01DX009 (ip), vehicle: saline) 103 % of control; (dose: 100.0 mg/kg/injection, schedule: Q01DX009 (ip), vehicle: saline) 100 % of control.

On to `NC(Cc1ccc(O)cc1)C(=O)N/N=C/c1cccc2ccccc12` (centres undefined), for which the T/C was 92 % of control under setting [9], 90 % of control under setting [10] and 89 % of control under setting [11].

Take `Cn1c(=O)c(Br)c(Br)c(=O)n1-c1ccc(Br)cc1`: the T/C is 95 % of control (dose: 42.5 micrograms/kg/injection, schedule: Q01DX009 (ip), vehicle: Klucel (hydroxypropylcellulose) (HPC)); 103 % of control (dose: 85.0 micrograms/kg/injection, schedule: Q01DX009 (ip), vehicle: Klucel (hydroxypropylcellulose) (HPC)); 100 % of control (dose: 170.0 micrograms/kg/injection, schedule: Q01DX009 (ip), vehicle: Klucel (hydroxypropylcellulose) (HPC)).

Consider `CC(=O)c1c(N)n(C)c(=O)n(C)c1=O`, for which the T/C reads like this: under setting [12], 101 % of control; (dose: 3.13 mg/kg/injection, schedule: Q01DX009 (ip), vehicle: saline with Tween-80) 100 % of control; under setting [13], 100 % of control and 95 % of control.

With `Cl[C](Cl)(Cl)[Hg][C](Cl)(Cl)Cl`, the T/C under setting [12] was 95 % of control; the T/C (dose: 3.12 mg/kg/injection, schedule: Q01DX009 (ip), vehicle: saline with Tween-80) was 90 % of control and 96 % of control; the T/C under setting [13] is 87 % of control.

Turning to `COC(=O)C(=O)c1c(C(=O)OC)nc2nnc(N)n2c1C1CC1`, the T/C under setting [1] is 100 % of control; the T/C under setting [2] was 107 % of control; the T/C (dose: 240.0 mg/kg/injection, schedule: Q01DX005 (ip), vehicle: saline with Tween-80) was 105 % of control.

With `CCOC1NC(=S)N(C2CCCCC2)C1(C)C` (centres undefined), the T/C was 93 % of control (dose: 50.0 mg/kg/injection, schedule: Q01DX009 (ip), vehicle: suspension in saline); 92 % of control (dose: 100.0 mg/kg/injection, schedule: Q01DX009 (ip), vehicle: suspension in saline); 97 % of control (dose: 200.0 mg/kg/injection, schedule: Q01DX009 (ip), vehicle: suspension in saline).

For the compound `O=C(Cn1nnc(N2CCCCC2)n1)N/N=C/c1ccccc1O`, the T/C reads like this: (dose: 30.0 mg/kg/injection, schedule: Q01DX005 (ip), vehicle: Klucel (hydroxypropylcellulose) (HPC)) 88 % of control; under setting [7], 95 % of control; under setting [8], 95 % of control.

Turning to `O=C(NC(=O)C(F)(F)F)Nc1cccc(C(F)(F)F)c1`, the T/C is, setting by setting: under setting [3], 114 % of control; under setting [4], 94 % of control; under setting [5], 94 % of control.

In the case of `COCC1(C)CCCC2(C)C3=C(CCC(=O)C3)CCC12` (centres undefined), the T/C (dose: 100.0 mg/kg/injection, schedule: Q04DX003 (ip), vehicle: Klucel (hydroxypropylcellulose) (HPC)) is 99 % of control; the T/C (dose: 200.0 mg/kg/injection, schedule: Q04DX003 (ip), vehicle: Klucel (hydroxypropylcellulose) (HPC)) is 101 % of control; the T/C (dose: 400.0 mg/kg/injection, schedule: Q04DX003 (ip), vehicle: Klucel (hydroxypropylcellulose) (HPC)) is 96 % of control.

Regarding `CCOC(=O)CC1=CSC(=C(C#N)C#N)N1c1ccccc1`, the T/C is 102 % of control under setting [9], 98 % of control under setting [10] and 98 % of control under setting [11].

Consider `CC1(C)CC(=O)C2=C(SC3=C(C2)C(=O)CC(C)(C)S3)S1`, for which the T/C is 104 % of control under setting [6], 100 % of control under setting [7] and 87 % of control under setting [8].

Consider `Cc1[nH]c2ccc(CN)cc2c1CC(N)C(=O)O` (centres undefined), for which the T/C runs as follows: (dose: 100.0 mg/kg/injection, schedule: Q01DX001 (ip), vehicle: saline) 110 % of control; (dose: 200.0 mg/kg/injection, schedule: Q01DX001 (ip), vehicle: saline) 104 % of control; (dose: 400.0 mg/kg/injection, schedule: Q01DX001 (ip), vehicle: saline) 107 % of control.

In the case of `CC(C)Cn1c(C(C)C)nc([N+](=O)[O-])c1Sc1ncn[nH]1`, the T/C runs as follows: (dose: 25.0 mg/kg/injection, schedule: Q01DX005 (ip), vehicle: Klucel (hydroxypropylcellulose) (HPC)) 108 % of control; (dose: 50.0 mg/kg/injection, schedule: Q01DX005 (ip), vehicle: Klucel (hydroxypropylcellulose) (HPC)) 108 % of control and 118 % of control; (dose: 100.0 mg/kg/injection, schedule: Q01DX005 (ip), vehicle: Klucel (hydroxypropylcellulose) (HPC)) 123 % of control.
